Assay results taken from ChEMBL document CHEMBL1201862, “PubChem BioAssay data set” (2004).
Activity calls are given as the source filed them.

Tests used:
[1] = molecular target: T1, ORF 73 (Human herpesvirus 8, UniProt O40947); experiment: KSHV LANA DNA-binding disruption – biochemical, fluorescence polarization, cherry-picked samples, dose response (AID 504725); set-up: species or system Human gammaherpesvirus 8;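 also: fluorescence polarization of a labeled DNA duplex reporting LANA DNA binding; potency is for inhibitors that block LANA binding to the DNA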
T1 sequence (O40947 whole entry): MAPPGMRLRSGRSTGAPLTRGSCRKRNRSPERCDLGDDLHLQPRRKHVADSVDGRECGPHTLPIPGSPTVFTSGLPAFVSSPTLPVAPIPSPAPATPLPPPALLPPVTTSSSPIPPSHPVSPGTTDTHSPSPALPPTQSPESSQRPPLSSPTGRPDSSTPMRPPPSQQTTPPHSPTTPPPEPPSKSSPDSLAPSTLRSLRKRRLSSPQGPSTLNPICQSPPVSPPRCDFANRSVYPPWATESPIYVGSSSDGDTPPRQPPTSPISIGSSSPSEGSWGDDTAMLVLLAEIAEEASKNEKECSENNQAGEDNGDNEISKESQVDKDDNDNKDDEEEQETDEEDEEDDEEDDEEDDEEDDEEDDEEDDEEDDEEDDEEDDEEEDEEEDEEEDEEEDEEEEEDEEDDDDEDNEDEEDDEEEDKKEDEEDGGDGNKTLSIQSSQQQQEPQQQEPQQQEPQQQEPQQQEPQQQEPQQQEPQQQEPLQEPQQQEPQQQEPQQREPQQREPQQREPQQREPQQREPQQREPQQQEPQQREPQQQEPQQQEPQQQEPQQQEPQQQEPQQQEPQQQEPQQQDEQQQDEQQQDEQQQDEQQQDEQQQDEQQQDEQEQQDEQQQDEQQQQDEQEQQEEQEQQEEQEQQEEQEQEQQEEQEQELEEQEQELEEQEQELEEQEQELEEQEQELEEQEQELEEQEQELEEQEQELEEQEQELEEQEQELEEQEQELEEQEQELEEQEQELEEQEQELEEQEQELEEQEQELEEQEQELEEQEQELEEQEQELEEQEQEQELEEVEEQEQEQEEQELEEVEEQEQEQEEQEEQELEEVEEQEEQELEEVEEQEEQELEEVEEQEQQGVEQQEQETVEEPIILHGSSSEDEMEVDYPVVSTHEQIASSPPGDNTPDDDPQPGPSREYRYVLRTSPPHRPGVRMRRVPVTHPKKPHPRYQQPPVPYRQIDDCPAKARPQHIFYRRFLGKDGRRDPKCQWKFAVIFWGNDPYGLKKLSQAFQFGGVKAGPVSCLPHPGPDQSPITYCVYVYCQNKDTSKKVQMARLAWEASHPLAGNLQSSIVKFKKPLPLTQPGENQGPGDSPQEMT

[2] = molecular target: T2, SUMO-activating enzyme (Homo sapiens, UniProt Q9UBT2); experiment: blockers of SAE1/SAE2–UBC9 SUMO transfer – biochemical, HTRF, uHTS, primary screen (AID 2006); type: protein-complex assay
T2 sequence (Q9UBE0 whole entry): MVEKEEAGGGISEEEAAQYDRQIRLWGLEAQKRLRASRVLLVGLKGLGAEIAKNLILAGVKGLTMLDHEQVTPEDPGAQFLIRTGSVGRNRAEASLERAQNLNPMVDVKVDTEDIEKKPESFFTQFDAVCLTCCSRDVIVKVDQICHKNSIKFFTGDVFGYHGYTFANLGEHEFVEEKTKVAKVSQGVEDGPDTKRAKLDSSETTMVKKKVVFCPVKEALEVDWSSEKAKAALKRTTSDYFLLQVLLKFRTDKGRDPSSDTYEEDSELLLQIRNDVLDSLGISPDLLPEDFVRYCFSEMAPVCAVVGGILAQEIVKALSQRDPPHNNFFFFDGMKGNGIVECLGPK
T2 sequence (Q9UBT2 whole entry): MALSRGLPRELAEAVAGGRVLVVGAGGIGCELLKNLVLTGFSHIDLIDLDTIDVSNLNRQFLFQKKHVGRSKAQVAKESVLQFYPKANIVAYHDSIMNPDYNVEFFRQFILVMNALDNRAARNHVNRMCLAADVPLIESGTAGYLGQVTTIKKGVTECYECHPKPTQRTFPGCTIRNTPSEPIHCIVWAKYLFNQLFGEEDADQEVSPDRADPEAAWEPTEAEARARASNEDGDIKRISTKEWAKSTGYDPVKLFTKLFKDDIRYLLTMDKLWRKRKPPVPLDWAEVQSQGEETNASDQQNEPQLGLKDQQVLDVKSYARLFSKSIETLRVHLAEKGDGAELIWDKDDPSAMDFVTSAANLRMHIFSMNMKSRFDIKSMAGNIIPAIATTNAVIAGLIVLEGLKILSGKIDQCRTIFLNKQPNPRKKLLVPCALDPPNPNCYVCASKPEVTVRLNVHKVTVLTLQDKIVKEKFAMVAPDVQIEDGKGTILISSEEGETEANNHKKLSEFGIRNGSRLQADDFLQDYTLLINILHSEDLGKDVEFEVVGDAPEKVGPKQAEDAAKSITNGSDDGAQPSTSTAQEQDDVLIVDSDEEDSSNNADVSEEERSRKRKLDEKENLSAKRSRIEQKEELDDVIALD

[3] = molecular target: T2, SUMO-activating enzyme; experiment: blockers of UBC9-mediated SUMO conjugation – biochemical, AlphaScreen, SUMOylation inhibitor project, confirmation (AID 2018); type: functional
[4] = molecular target: Eukaryotic translation initiation factor 4H (Homo sapiens, UniProt Q15056); experiment: eIF4H binding inhibition – biochemical, uHTS, fluorescence polarization, translation initiation inhibitor project, primary screen (AID 2012)
[5] = molecular target: Polyadenylate-binding protein 1 (Homo sapiens, UniProt P11940); experiment: blockers of PABP interaction with poly(A) – biochemical, fluorescence polarization, […] (AID 2014)
Polyadenylate-binding protein 1, sequence (P11940 whole entry): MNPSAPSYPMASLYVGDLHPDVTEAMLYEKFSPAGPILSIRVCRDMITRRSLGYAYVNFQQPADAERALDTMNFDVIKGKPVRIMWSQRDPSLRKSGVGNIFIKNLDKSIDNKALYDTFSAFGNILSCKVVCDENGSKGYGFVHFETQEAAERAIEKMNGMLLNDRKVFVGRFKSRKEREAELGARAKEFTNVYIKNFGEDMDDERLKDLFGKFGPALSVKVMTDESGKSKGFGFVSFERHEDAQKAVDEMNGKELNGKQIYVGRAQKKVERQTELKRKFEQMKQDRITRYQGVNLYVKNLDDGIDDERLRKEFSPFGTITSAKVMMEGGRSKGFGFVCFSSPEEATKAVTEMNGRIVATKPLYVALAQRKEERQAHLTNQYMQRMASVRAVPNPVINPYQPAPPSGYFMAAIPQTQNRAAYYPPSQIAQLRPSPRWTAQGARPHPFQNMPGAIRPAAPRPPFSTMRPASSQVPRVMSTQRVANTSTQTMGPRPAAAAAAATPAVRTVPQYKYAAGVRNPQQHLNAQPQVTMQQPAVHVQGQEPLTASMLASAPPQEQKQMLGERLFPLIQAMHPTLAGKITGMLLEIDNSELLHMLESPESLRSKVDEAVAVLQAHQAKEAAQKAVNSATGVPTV

[6] = A cytotoxicity screen of small molecule inhibitors of the PhoP region in Salmonella typhi identified in the primary screen. [Related pubchem assays: 1850, 1864, 1985 ]; type: functional
[7] = molecular target: Procathepsin L (Homo sapiens, UniProt P07711); experiment: CTSL1 protease inhibition – biochemical, QFRET, 1536-well, counter-screen for M1/M17 aminopeptidase inhibitor project, dose response (AID 2214)
Procathepsin L, sequence (P07711 whole entry): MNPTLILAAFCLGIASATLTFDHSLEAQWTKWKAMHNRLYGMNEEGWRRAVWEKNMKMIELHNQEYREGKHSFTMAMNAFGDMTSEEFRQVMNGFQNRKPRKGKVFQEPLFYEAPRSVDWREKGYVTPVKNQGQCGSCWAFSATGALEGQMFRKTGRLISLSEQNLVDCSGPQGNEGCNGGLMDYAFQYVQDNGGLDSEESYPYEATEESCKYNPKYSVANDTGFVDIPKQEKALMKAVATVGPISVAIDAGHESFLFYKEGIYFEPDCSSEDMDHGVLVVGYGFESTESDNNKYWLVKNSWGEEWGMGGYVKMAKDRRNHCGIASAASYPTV

[8] = molecular target: T3, Aspartyl aminopeptidase (Plasmodium falciparum 3D7, UniProt Q8I2J3); experiment: Counterscreen for inhibitors of M1 and M17 aminopeptidases: QFRET-based biochemical high throughput dose response assay for inhibitors of the Plasmodium falciparum M18 Aspartyl Aminopeptidase (PFM18AAP). [Related PubChem assays: 1619 (Screening assay (M17LAP inhibitors).), 1445 (Screening assay (M1AAP inhibitors).)]
T3 sequence (Q8I2J3 whole entry): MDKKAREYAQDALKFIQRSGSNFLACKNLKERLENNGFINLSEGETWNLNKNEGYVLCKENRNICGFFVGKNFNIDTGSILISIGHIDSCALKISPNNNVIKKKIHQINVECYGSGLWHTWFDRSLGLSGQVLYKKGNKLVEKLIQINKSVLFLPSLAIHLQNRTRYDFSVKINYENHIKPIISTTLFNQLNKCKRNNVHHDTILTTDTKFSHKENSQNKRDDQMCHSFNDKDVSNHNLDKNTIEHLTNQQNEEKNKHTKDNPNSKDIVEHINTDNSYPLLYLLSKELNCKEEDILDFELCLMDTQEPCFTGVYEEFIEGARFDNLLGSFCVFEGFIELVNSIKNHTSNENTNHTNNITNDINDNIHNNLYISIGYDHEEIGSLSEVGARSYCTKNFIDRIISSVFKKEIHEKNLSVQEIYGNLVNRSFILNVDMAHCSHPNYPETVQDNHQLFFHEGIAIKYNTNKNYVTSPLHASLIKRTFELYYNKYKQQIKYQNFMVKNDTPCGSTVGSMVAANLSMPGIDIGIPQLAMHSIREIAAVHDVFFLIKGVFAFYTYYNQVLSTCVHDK

[9] = molecular target: T4, Leucine aminopeptidase (Plasmodium falciparum 3D7, UniProt Q8IL11); experiment: P. falciparum M17LAP inhibitors, primary screen, biochemical, fluorogenic H-Leu-NHMec substrate, 1536-well (AID 1619); type: functional
T4 sequence (Q8IL11 whole entry): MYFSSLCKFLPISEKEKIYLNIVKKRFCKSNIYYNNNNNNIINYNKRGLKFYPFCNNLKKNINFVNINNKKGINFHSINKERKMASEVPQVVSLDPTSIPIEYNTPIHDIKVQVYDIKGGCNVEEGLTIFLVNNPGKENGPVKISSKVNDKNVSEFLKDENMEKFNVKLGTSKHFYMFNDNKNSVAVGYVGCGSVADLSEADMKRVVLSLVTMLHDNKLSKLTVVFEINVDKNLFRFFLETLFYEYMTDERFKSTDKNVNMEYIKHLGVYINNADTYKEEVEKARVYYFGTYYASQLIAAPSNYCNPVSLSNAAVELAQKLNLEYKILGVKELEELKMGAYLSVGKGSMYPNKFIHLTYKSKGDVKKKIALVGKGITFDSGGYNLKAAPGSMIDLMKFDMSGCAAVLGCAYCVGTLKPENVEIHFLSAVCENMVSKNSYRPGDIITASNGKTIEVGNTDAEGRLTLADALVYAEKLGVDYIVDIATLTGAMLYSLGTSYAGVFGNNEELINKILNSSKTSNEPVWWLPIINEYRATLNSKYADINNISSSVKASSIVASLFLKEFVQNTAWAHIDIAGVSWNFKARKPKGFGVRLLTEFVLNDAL

[10] = test system: HT-1080; experiment: HT1080 cell viability loss – fluorescence readout (AID 620); type: functional, cell-based; settings: Homo sapiens
[11] = test system: HEK293; experiment: EBV LMP1 TES2 canonical NF-kB signalling blockers – cell-based, HEK293, luciferase, cherry-pick, dose response (AID 588343); type: functional; settings: Homo sapiens
[12] = molecular target: Luciferin 4-monooxygenase (Photinus pyralis, UniProt P08659); experiment: Counter Screen for Luciferase-based Assay Positives. [Related pubchem assays: 620, 618, 411 ]
Luciferin 4-monooxygenase, sequence (P08659 whole entry): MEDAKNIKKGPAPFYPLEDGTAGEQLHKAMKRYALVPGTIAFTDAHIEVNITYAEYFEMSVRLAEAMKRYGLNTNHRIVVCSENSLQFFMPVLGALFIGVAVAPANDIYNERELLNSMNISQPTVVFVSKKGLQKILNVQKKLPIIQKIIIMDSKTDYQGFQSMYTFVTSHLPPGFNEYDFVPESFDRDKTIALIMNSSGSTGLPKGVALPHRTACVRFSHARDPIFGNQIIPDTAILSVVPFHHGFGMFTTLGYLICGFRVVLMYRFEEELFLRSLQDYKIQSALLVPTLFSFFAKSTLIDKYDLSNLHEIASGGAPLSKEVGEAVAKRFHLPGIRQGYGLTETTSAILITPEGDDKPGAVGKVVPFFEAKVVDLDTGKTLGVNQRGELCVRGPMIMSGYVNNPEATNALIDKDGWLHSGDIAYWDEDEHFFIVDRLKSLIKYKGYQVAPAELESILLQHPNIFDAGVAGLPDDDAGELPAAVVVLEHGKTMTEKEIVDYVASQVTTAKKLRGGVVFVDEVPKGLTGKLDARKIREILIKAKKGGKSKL

[13] = NIH3T3 cell viability loss – ATP luminescence, mouse fibroblasts, counter-screen, dose response (AID 2010); type: functional, cell-based;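 also: cells exposed to compound for about 90 hours before reading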
[14] = Trypanosoma cruzi growth suppression in host cells – NIH3T3 host cells, beta-gal luminescence, confirmation (AID 2044); type: functional, cell-based;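 also: intracellular parasites grown in NIH/3T3 mouse fibroblasts as host cells; luminescent beta-galactosidase reporter signal from transgenic T. cruzi replicating inside host cells; inhibitors lower the luminescence signal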
[15] = molecular target: T5, Acyl-homoserine lactone acylase PvdQ (Pseudomonas aeruginosa (strain LESB58), UniProt Q9I194); experiment: PvdQ acylase enzyme activity blockers – biochemical, fluorescence, plate reader and imaging, cherry-picks, dose response (AID 493231)
T5 sequence (Q9I194 whole entry): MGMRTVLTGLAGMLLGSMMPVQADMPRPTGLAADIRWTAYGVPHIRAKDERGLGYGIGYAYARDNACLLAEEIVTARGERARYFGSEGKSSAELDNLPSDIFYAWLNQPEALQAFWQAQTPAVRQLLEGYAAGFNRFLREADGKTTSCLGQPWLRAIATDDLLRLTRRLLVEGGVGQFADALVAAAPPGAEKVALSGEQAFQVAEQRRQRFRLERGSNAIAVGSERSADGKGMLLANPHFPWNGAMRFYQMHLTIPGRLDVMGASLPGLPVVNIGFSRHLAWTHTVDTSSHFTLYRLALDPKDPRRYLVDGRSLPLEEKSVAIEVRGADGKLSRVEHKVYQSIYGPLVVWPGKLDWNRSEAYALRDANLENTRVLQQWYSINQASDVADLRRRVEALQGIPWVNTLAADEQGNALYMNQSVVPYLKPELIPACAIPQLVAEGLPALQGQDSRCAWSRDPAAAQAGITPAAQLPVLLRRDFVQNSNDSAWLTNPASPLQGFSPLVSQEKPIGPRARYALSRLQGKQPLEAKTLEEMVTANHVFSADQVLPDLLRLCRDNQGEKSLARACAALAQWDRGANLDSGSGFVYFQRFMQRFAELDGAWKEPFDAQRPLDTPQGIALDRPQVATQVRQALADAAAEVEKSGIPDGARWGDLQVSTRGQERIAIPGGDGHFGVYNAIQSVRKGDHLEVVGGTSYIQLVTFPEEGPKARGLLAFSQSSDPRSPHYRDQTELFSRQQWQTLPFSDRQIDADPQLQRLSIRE

[16] = molecular target: T6, Ubiquitin-conjugating enzyme E2 N (Homo sapiens, UniProt P61088); type: functional;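 also: Dose-response confirmation in a TR-FRET assay detecting UBC13-driven polyubiquitin chain formation, inhibition measured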
T6 sequence (P61088 whole entry): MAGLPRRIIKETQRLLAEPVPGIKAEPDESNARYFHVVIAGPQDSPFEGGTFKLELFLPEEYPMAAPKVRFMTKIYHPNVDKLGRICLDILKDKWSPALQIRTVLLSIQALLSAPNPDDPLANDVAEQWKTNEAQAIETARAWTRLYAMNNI

COc1cc2c(cc1OC)-c1cc3ccc4c(c3c[n+]1CC2)OCO4
AC50 [1]: 20.5 µM (active) | IC50 [2]: 8.68 µM (active) | IC50 [3]: 4.17 µM (active)

O=C(NC(Cc1ccccc1)C(=O)Oc1ccc2c(C(F)(F)F)cc(=O)oc2c1)OCc1ccccc1 (stereo unspecified)
IC50 [4]: > 100 µM (inactive) | IC50 [5]: > 100 µM (inactive)

CNc1nc(SC)n(C)c(=O)c1N=O
EC50 [6]: > 50 µM (active)

COC(=O)c1c(-c2ccc(C)cc2)csc1NC(=O)C1CC=CCC1C(=O)O (stereo unspecified)
IC50 [7]: > 59.6 µM (not active) | IC50 [8]: > 73.5 µM (not active) | IC50 [9]: 1.2 µM (active)

c1ccc(OCCSc2nnc3sc4ccccc4n23)cc1
EC50 [10]: 14.8 µM (active) | AC50 [11]: 1.29 µM (active) | EC50 [12]: > 100 µM (not active)

O=C(NCC1CC1)c1cc([N+](=O)[O-])cc([N+](=O)[O-])c1
EC50 [13]: > 60 µM (not active) | EC50 [14]: 0.622 µM (active) | AC50 [15]: 3.55 µM (active)

O=S(=O)(c1ccc(NC(=S)NN=C(C2CC2)C2CC2)cc1)N1CCOCC1
IC50 [16]: > 20 µM (inactive)
